Values joined by “and” are separate entries in the source; they are usually repeats but may differ in a detail not shown here. Equal entries are not always repeated. Non-standard residues stand in square brackets, D forms with d. Residues, ends and D or L forms follow the SMILES beside them. *: point of attachment. X1 = N#Cc1cc(C(=O)*)ccn1; AEEA = NCCOCCOCC(=O)O; Ahx = NCCCCCC(=O)O
How the values were obtained:
A. baumannii 5075D = type: cell-based, Acinetobacter baumannii; conditions: polymyxin-dependent resistant isolate; disc diffusion (EUCAST), 40 μM per disk, inoculum McFarland 0.5 (~10^8 CFU/ml), 18 h at 37°C; volume per disk corrected by Mw equivalent to 40 ug of LASP-072
Protocol: (§1) According to the EUCAST guidelines ([Eucast, E.C.O.a.S.T., 2021]), the inoculum was standardized in sterile saline to the density of a McFarland 0.50 ± 0.02 standard, corresponding to ∼10^8 CFU/ml of each isolate. The freshly prepared bacterial suspension was evenly inoculated onto agar plates and disks containing 40 μM of peptide-PNA conjugates were applied within 15 min. The diameter of inhibition zones was measured after incubation for 18 h at 37°C. Polymyxin B (40 μM/disk) was employed as the control.
(§2) The selected peptide sequences are known for their antimicrobial activity ([Le et al., 2017]). Therefore, we evaluated the antimicrobial activity of synthesized peptide-PNA conjugates using the Disc Diffusion Assay (DDA) against a panel of MDR Gram-negative bacteria consisting of P. aeruginosa, A. baumannii, K. pneumoniae, E. coli, including the isolates highly polymyxin-resistant A. baumannii 5075R, and A. baumannii 5075D (Figure 4 and Supplementary Table S1). […] Therefore, we further synthesized 10-mer PNAs targeting four bacterial essential genes anti-rpoA LASP-095 ([Abushahba et al., 2016]), anti-murA LASP-096 ([Goh et al., 2009]; [Mondhe et al., 2014]), anti-acpP LASP-097 ([Hansen et al., 2016]), and anti-rpoD LASP-119 ([Bai et al., 2012]; [Alajlouni and Seleem, 2013]). During the synthesis of the next set of peptide-PNA conjugates, we switched the direction of the conjugation handles to investigate the impact on the efficiency of conjugation. Here, PNAs were synthesized with an N-terminal CINA moiety (LASP-095, 096, 097 and 119, Table 1) and a polymyxin analogue (LASP-072, Table 1) was synthesized containing an N-terminal cysteine residue (Supplementary Figure S3).
Table S1: Inhibition zone (mm) for peptide, PNA, and peptide-PNA conjugates
Zone of inhibition diameter (mm)
Mw equivalent Pa Ab Kp Ab Ab

A. baumannii 5075 = conditions: 40 μM per disk; for Zone of inhibition diameter, Ab 5075: disc diffusion (EUCAST), inoculum McFarland 0.5 (~10^8 CFU/ml), 18 h at 37°C, volume per disk corrected by Mw equivalent to 40 ug of LASP-072
Protocol: as §1
(§3) The selected peptide sequences are known for their antimicrobial activity ([Le et al., 2017]). Therefore, we evaluated the antimicrobial activity of synthesized peptide-PNA conjugates using the Disc Diffusion Assay (DDA) against a panel of MDR Gram-negative bacteria consisting of P. aeruginosa, A. baumannii, K. pneumoniae, E. coli, including the isolates highly polymyxin-resistant A. baumannii 5075R, and A. baumannii 5075D (Figure 4 and Supplementary Table S1). […] During the synthesis of the next set of peptide-PNA conjugates, we switched the direction of the conjugation handles to investigate the impact on the efficiency of conjugation. […]
Figure S11: The inhibition zone (mm) of all peptides, PNA and peptide-PNA conjugates
against A. baumannii 5075 at a concentration of 40 μM. […]

P. aeruginosa ATCC 27853 = conditions: disc diffusion (EUCAST), 40 μM per disk, inoculum McFarland 0.5 (~10^8 CFU/ml), 18 h at 37°C; volume per disk corrected by Mw equivalent to 40 ug of LASP-072
Protocol: as §1
(§4) The selected peptide sequences are known for their antimicrobial activity ([Le et al., 2017]). Therefore, we evaluated the antimicrobial activity of synthesized peptide-PNA conjugates using the Disc Diffusion Assay (DDA) against a panel of MDR Gram-negative bacteria consisting of P. aeruginosa, A. baumannii, K. pneumoniae, E. coli, including the isolates highly polymyxin-resistant A. baumannii 5075R, and A. baumannii 5075D (Figure 4 and Supplementary Table S1). […] During the synthesis of the next set of peptide-PNA conjugates, we switched the direction of the conjugation handles to investigate the impact on the efficiency of conjugation.
Figure S7: The inhibition zone (mm) of all peptides, PNA and peptide-PNA conjugates
against P. aeruginosa ATCC 27853 at a concentration of 40 μM. […]

A. baumannii 5075R = conditions: polymyxin-resistant isolate; disc diffusion (EUCAST), 40 μM per disk, inoculum McFarland 0.5 (~10^8 CFU/ml), 18 h at 37°C; volume per disk corrected by Mw equivalent to 40 ug of LASP-072
Protocol: as §1, §3
Figure S12: The inhibition zone (mm) of all peptides, PNA and peptide-PNA conjugates
against A. baumannii 5075R at a concentration of 40 μM.

[1] = system: Klebsiella pneumoniae ATCC 700721; conditions: disc diffusion (EUCAST), 40 μM per disk, inoculum McFarland 0.5 (~10^8 CFU/ml), 18 h at 37°C; volume per disk corrected by Mw equivalent to 40 ug of LASP-072
Protocol: as §1, §3
Figure S9: The inhibition zone (mm) of all peptides, PNA and peptide-PNA conjugates
against Klebsiella pneumoniae ATCC 700721 at a concentration of 40 μM.

A. baumannii ATCC 17978 = conditions: disc diffusion (EUCAST), 40 μM per disk, inoculum McFarland 0.5 (~10^8 CFU/ml), 18 h at 37°C; volume per disk corrected by Mw equivalent to 40 ug of LASP-072
Protocol: as §1, §3
Figure S8: The inhibition zone (mm) of all peptides, PNA and peptide-PNA conjugates
against A. baumannii ATCC 17978 at a concentration of 40 μM. […]

E. coli DH5α = conditions: disc diffusion (EUCAST), 40 μM per disk, inoculum McFarland 0.5 (~10^8 CFU/ml), 18 h at 37°C; volume per disk corrected by Mw equivalent to 40 ug of LASP-072
Protocol: as §1, §4
Figure S10: The inhibition zone (mm) of all peptides, PNA and peptide-PNA conjugates
against E. coli DH5α at a concentration of 40 μM. […]

[2] = system: panel of MDR Gram-negative bacteria consisting of P. aeruginosa, A. baumannii, K. pneumoniae, E. coli; test: Disc diffusion assay, statements for the whole panel; type: cell-based; conditions: 40 μM per disk, 18 h at 37°C, statement of the text for the whole panel
Protocol: as §1, §2

| Compound | Zone of inhibition diameter, Ab 5075 D (A. baumannii 5075D) | Bacterial growth in the presence of the conjugate (polymyxin-dependent phenotype) (A. baumannii 5075; disc diffusion, result in words) | Zone of inhibition diameter, Pa ATCC 27853 (P. aeruginosa ATCC 27853) | Zone of inhibition diameter, Ab 5075 R (A. baumannii 5075R) | Zone of inhibition diameter, Kp ATCC 700721 [1] | Zone of inhibition diameter, Ab ATCC 17978 (A. baumannii ATCC 17978) | Zone of inhibition diameter, E. coli DH5α (E. coli DH5α) | Diameter of inhibition zones over the panel of bacteria [2] | Zone of inhibition diameter, Ab 5075 (A. baumannii 5075) |
| --- | --- | --- | --- | --- | --- | --- | --- | --- | --- |
| CINA-PEG-Gly-Lys-Pro-Arg-Pro-Tyr-Ser-Pro-Arg-Pro-Thr-Ser-His-Pro-Arg-Pro-Ile-Arg-Arg-NH2 [LASP-084] | 7 mm and 8 mm | greater bacterial growth | 0 mm | 0 mm | 0 mm | 0 mm | 8 mm |  |  |
| H-Arg-Acp-Arg-Arg-Acp-Arg-Arg-Acp-Arg-Arg-Acp-Arg-PEG-Lys (CINA)-NH2 [LASP-058] | 0 mm |  | 0 mm | 0 mm | 0 mm | 0 mm | 0 mm | No zone of bacterial growth inhibition | 0 mm |
| Cys-PEG-OctGly-Dab-Thr-Dab-Dab ^b -Dab-D-Phe-Leu-Dab-Dab-Thr ^b (lariat or depsi) [LASP-130] | 0 mm |  | 9 mm | 7 mm | 9 mm | 9 mm | 12 mm | 11–14 mm | 10 mm |
| CINA-PEG-Val-Cys ^d -Lys-Arg-trp-Lys-Lys-Trp-Lys-Arg-Lys-Trp-Lys-Lys-Trp-Cys ^d -Val-NH2 (disulfide) [LASP-088] |  |  | 0 mm | 0 mm | 0 mm | 0 mm | 8 mm |  | 7 mm and 8 mm |
| CINA-PEG-OctGly-Dab-Thr-Dab-Dab ^b -Dab-D-Phe-Leu-Dab-Dab-Thr ^b (lariat or depsi) [LASP-026] | 9 mm |  | 14 mm | 11 mm | 13 mm | 13 mm | 15 mm |  | 13 mm |
| CINA-PEG-Gly-Lys-Pro-Arg-Pro-Tyr-Ser-Pro-Arg-Pro-Thr-Ser-His-Pro-Arg-Pro-Ile-Arg-Arg-NH2 [LASP-077] | 0 mm |  | 0 mm | 0 mm | 0 mm | 0 mm | 0 mm |  | 0 mm |
| N#Cc1cc(C(=O)NCCCC[C@H](NC(=O)COCCOCCNC(=O)[C@H](CCCNC(=N)N)NC(=O)CCCCCNC(=O)[C@H](CCCNC(=N)N)NC(=O)[C@H](CCCNC(=N)N)NC(=O)CCCCCNC(=O)[C@H](CCCNC(=N)N)NC(=O)[C@H](CCCNC(=N)N)NC(=O)CCCCCNC(=O)[C@H](CCCNC(=N)N)NC(=O)[C@H](CCCNC(=N)N)NC(=O)CCCCCNC(=O)[C@@H](N)CCCNC(=N)N)C(N)=O)ccn1 [LASP-054] (H-R[Ahx]RR[Ahx]RR[Ahx]RR[Ahx]R[AEEA]K(X1)-NH2) | 9 mm |  | 0 mm | 8 mm | 8 mm | 9 mm | 9 mm |  | 8 mm |
| CINA-PEG-Val-Cys ^c -Lys-Arg-trp-Lys-Lys-Trp-Lys-Arg-Lys-Trp-Lys-Lys-Trp-Cys ^c -Val-NH2 (sidechain bridge or staple) [LASP-086] | 0 mm |  | 0 mm | 0 mm | 0 mm | 0 mm | 0 mm | No zone of bacterial growth inhibition | 0 mm |
